How the values were obtained:
Format in all cases: in vivo
[1] = tested on: lambsquarters (Chenopodium album, CHEAL); assay: Post-emerge test, greenhouse herbicide activity screening; conditions: post-emerge, phytotoxicity rating 0-100 at 14 days after application
In short: (§1)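 Each test used a mechanized track sprayer delivering 187 l/ha of acetone solution at 15–1000 g ai/ha. Post-emerge foliage at 2–3 leaves was treated with added 0.25% v/v non-ionic surfactant and bottom-watered only. Injury was assessed on day 14, where 100 means total kill.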

[2] = tested on: ivyleaf morningglory (Ipomoea hederacea, IPOHE); assay: as above; conditions: post-emerge, phytotoxicity rating 0-100 at 14 days after application
In short: as §1

[3] = tested on: velvetleaf (Abutilon theophrasti, ABUTH); assay: as above; conditions: post-emerge, phytotoxicity rating 0-100 at 14 days after application
In short: as §1

[4] = tested on: large crabgrass (Digitaria sanguinalis, DIGSA); assay: as above; conditions: post-emerge, phytotoxicity rating 0-100 at 14 days after application
In short: as §1

[5] = tested on: green foxtail (Setaria viridis, SETVI); assay: as above; conditions: post-emerge, phytotoxicity rating 0-100 at 14 days after application
In short: as §1

[6] = tested on: barnyardgrass (Echinochloa crus-galli, ECHCG); assay: as above; conditions: post-emerge, phytotoxicity rating 0-100 at 14 days after application
In short: as §1

[7] = tested on: sicklepod (Cassia obtusifolia, CASOB); assay: as above; conditions: post-emerge, phytotoxicity rating 0-100 at 14 days after application
In short: as §1

[8] = tested on: common ragweed (Ambrosia artemisizfolia L., AMBEL); assay: as above; conditions: post-emerge, phytotoxicity rating 0-100 at 14 days after application
In short: as §1

[9] = tested on: johnsongrass (Sorghum halepense, SORHA); assay: as above; conditions: post-emerge, phytotoxicity rating 0-100 at 14 days after application
In short: as §1

[10] = tested on: redroot pigweed (Amaranthus retroflexus, AMARE); assay: as above; conditions: post-emerge, phytotoxicity rating 0-100 at 14 days after application
In short: as §1

[11] = tested on: redroot pigweed (Amaranthus retroflexus, AMARE); assay: Pre-emerge test, greenhouse herbicide activity screening; conditions: pre-emerge, phytotoxicity rating 0-100 at 14 days after application
In short: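 Plants grown in 10 cm pots of sandy loam mix received acetone-dissolved compounds through a moving flat-fan nozzle. Doses ranged from 15 to 1000 g ai/ha. Pre-emerge pots were seeded one day earlier, post-emerge pots 8–21 days earlier. Fourteen days on, each pot was graded 0–100 for damage.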

[12] = tested on: lambsquarters (Chenopodium album, CHEAL); assay: as above; conditions: pre-emerge, phytotoxicity rating 0-100 at 14 days after application
In short: (§2)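 Applied at 15–1000 g ai/ha from acetone in 187 l/ha spray volume. Post-emergence applications included 0.25% v/v non-ionic surfactant and reached plants sown 8–21 days before. Pre-emergence applications were incorporated by surface watering. Efficacy or crop damage was rated on a 0–100 scale after 14 days.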

[13] = tested on: ivyleaf morningglory (Ipomoea hederacea, IPOHE); assay: as above; conditions: pre-emerge, phytotoxicity rating 0-100 at 14 days after application
In short: as §2

[14] = tested on: velvetleaf (Abutilon theophrasti, ABUTH); assay: as above; conditions: pre-emerge, phytotoxicity rating 0-100 at 14 days after application
In short: as §2

[15] = tested on: large crabgrass (Digitaria sanguinalis, DIGSA); assay: as above; conditions: pre-emerge, phytotoxicity rating 0-100 at 14 days after application
In short: as §2

[16] = tested on: green foxtail (Setaria viridis, SETVI); assay: as above; conditions: pre-emerge, phytotoxicity rating 0-100 at 14 days after application
In short: as §2

[17] = tested on: barnyardgrass (Echinochloa crus-galli, ECHCG); assay: as above; conditions: pre-emerge, phytotoxicity rating 0-100 at 14 days after application
In short: as §2

[18] = tested on: sicklepod (Cassia obtusifolia, CASOB); assay: as above; conditions: pre-emerge, phytotoxicity rating 0-100 at 14 days after application
In short: as §2

[19] = tested on: johnsongrass (Sorghum halepense, SORHA); assay: as above; conditions: pre-emerge, phytotoxicity rating 0-100 at 14 days after application
In short: as §2

[20] = tested on: field corn (Zea mays L., var. Dekalb 535, CORN); assay: Post-emerge test, crop safety; conditions: post-emerge, crop damage rating 0-100 at 14 days after application
In short: as §2

[21] = tested on: upland rice (Oryza sp., var. Tebonnet, RICE); assay: Post-emerge test, crop safety; conditions: post-emerge, crop damage rating 0-100 at 14 days after application
In short: as §2

[22] = tested on: field corn (Zea mays L., var. Dekalb 535, CORN); assay: Pre-emerge test, crop safety; conditions: crop damage, pre-emerge, phytotoxicity rating 0-100 at 14 days after application
In short: (§3)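 Herbicidal damage is scored 0 (none) to 100 (complete plant death) two weeks after a simulated field spray. Rates span 15–1000 g ai/ha, delivered in acetone at 187 l/ha. For post-emergence treatments, plants have 2–3 leaves and the spray carries 0.25% v/v non-ionic surfactant.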

[23] = tested on: upland rice (Oryza sp., var. Tebonnet, RICE); assay: Pre-emerge test, crop safety; conditions: crop damage, pre-emerge, phytotoxicity rating 0-100 at 14 days after application
In short: as §3

COc1c(Cl)cc(F)c(-n2ncc(C(F)(F)F)cc2=O)c1NC(=O)c1ccc2ccccc2c1 [Compound 11-6, 2-(4-chloro-6-fluoro-3-methoxy-2-naphthoylamidophenyl)-5-trifluoromethylpyridazin-3-one]
40: Pre-emerge Herbicidal Activity SORHA ([19]; rate 250 g ai/ha)
90: Pre-emerge Herbicidal Activity ECHCG ([17]; rate 63 g ai/ha)
50: Post-emerge Herbicidal Activity SETVI ([5]; 250 g ai/ha) | Post-emerge Herbicidal Activity ECHCG ([6]; 63 g ai/ha) | Pre-emerge Herbicidal Activity RICE ([23]; rate 250 g ai/ha)
70: Post-emerge Herbicidal Activity IPOHE ([2]; 63 g ai/ha)
0: Post-emerge Herbicidal Activity DIGSA ([4]; 63 g ai/ha) | Post-emerge Herbicidal Activity DIGSA ([4]; 250 g ai/ha) | Post-emerge Herbicidal Activity SORHA ([9]; 63 g ai/ha) | Post-emerge Herbicidal Activity SORHA ([9]; 250 g ai/ha) | Pre-emerge Herbicidal Activity IPOHE ([13]; rate 63 g ai/ha) | Pre-emerge Herbicidal Activity SORHA ([19]; rate 63 g ai/ha) | Post-emerge Herbicidal Activity CORN ([20]; 63 g ai/ha) | Pre-emerge Herbicidal Activity CORN ([22]; rate 63 g ai/ha) | Pre-emerge Herbicidal Activity RICE ([23]; rate 63 g ai/ha)
10: Post-emerge Herbicidal Activity SETVI ([5]; 63 g ai/ha)
60: Post-emerge Herbicidal Activity RICE ([21]; 250 g ai/ha)
100: Post-emerge Herbicidal Activity CHEAL ([1]; 250 g ai/ha) | Post-emerge Herbicidal Activity IPOHE ([2]; 250 g ai/ha) | Post-emerge Herbicidal Activity ABUTH ([3]; 63 g ai/ha) | Post-emerge Herbicidal Activity ABUTH ([3]; 250 g ai/ha) | Post-emerge Herbicidal Activity CASOB ([7]; 63 g ai/ha) | Post-emerge Herbicidal Activity CASOB ([7]; 250 g ai/ha) | Post-emerge Herbicidal Activity AMBEL ([8]; 63 g ai/ha) | Post-emerge Herbicidal Activity AMBEL ([8]; 250 g ai/ha) | Post-emerge Herbicidal Activity AMARE ([10]; 63 g ai/ha) | Post-emerge Herbicidal Activity AMARE ([10]; 250 g ai/ha) | Pre-emerge Herbicidal Activity AMARE ([11]; rate 63 g ai/ha) | Pre-emerge Herbicidal Activity AMARE ([11]; rate 250 g ai/ha) | Pre-emerge Herbicidal Activity CHEAL ([12]; rate 63 g ai/ha) | Pre-emerge Herbicidal Activity CHEAL ([12]; rate 250 g ai/ha) | Pre-emerge Herbicidal Activity ABUTH ([14]; rate 250 g ai/ha) | Pre-emerge Herbicidal Activity DIGSA ([15]; rate 63 g ai/ha) | Pre-emerge Herbicidal Activity DIGSA ([15]; rate 250 g ai/ha) | Pre-emerge Herbicidal Activity SETVI ([16]; rate 63 g ai/ha) | Pre-emerge Herbicidal Activity SETVI ([16]; rate 250 g ai/ha) | Pre-emerge Herbicidal Activity ECHCG ([17]; rate 250 g ai/ha)
99: Pre-emerge Herbicidal Activity CASOB ([18]; rate 250 g ai/ha)
20: Pre-emerge Herbicidal Activity CASOB ([18]; rate 63 g ai/ha) | Post-emerge Herbicidal Activity CORN ([20]; 250 g ai/ha) | Post-emerge Herbicidal Activity RICE ([21]; 63 g ai/ha) | Pre-emerge Herbicidal Activity CORN ([22]; rate 250 g ai/ha)
95: Pre-emerge Herbicidal Activity ABUTH ([14]; rate 63 g ai/ha)
80: Post-emerge Herbicidal Activity CHEAL ([1]; 63 g ai/ha) | Post-emerge Herbicidal Activity ECHCG ([6]; 250 g ai/ha) | Pre-emerge Herbicidal Activity IPOHE ([13]; rate 250 g ai/ha)
